Test results: patent US12213975B2, “PDE9 inhibitors for treating sickle cell disease” (Cardurion Pharmaceuticals, Inc., priority 2018, dated 2025)

What was measured:
[1] = test system: Townes mouse model; assay: Plasma sE-Selectin in Townes mouse model of SCD; assay type: in vivo; conditions: Townes mice treated with Compound 1
Description: Recently several drugs targeting white cell binding to endothelial cells, have been advancing in clinical studies in patients. Compound 1 is able to increase expression of fetal hemoglobin in patient derived cells and murine models of SCD and reduce vessel occlusion in SCD murine models. In this Example, the ability of Compound 1 to reduce the adhesive properties of neutrophils from SCD patients and reduce sE-Selectin (sE-Sel) and markers of PMN activation in murine SCD models was studied.
Endothelial E-selectin (E-Sel) slows leukocyte rolling, which is followed by stationary adhesion and transmigration of activated leukocytes. Plasma levels of sE-Sel, produced by the enzymatic cleavage of the extracellular domains of E-Sel, are increased in SCD patients and this may be mediated by its interaction with leukocytes. In the Townes mouse model, plasma sE-Sel is increased 144% ([…]) over levels seen in control mice ([…]).

[2] = test system: SCD models; assay: Circulating levels of PMNs in SCD models; assay type: in vivo
[3] = test system: SCD patient neutrophils adhering to activated endothelial cells HMEC-1; assay: In vitro adhesion assay mimicking blood flow: SS patient neutrophils on activated HMEC-1 lined microchannels; assay type: cell-based, human
Description: This appears to be accompanied by a Compound 1-mediated reduction in disease specific cell activation including 67% lower levels of myeloid derived myeloperoxidase (MPO) and 26% lower levels of neutrophil derived arginase in the lung (FIG. 1). […] This was quantified by real time monitoring of the green florescent patches in the mircochannel, as neutrophils are labeled by a specific Alexa Fluor® 488-conjugated antibody before the perfusion step. […] Under these conditions, adhesion was reduced an average of 54% (p=0.03) (FIG. 2). Mechanistically, not willing to be bound by any theory, Compound 1 may target the stationary adhesion step of neutrophils as it lowered expression levels of key neutrophil integrins including CD11a [reduced 23% (p=0.002)], CD11b [reduced 39% (ns)) and CD18 [reduced 47% (p=0.03)) (FIG. 3).

[4] = test system: patient; assay: Adverse event profile when taken with food; assay type: in vivo; conditions: once a day with food
Experimental: In some embodiments, Compound 1 or a pharmaceutically acceptable salt or polymorph thereof is administered to a patient, wherein Compound 1 or a pharmaceutically acceptable salt or polymorph thereof is administered once a day with food. […] The incidence and severity of the side effects, such as nausea, emesis and headache, can be reduced when Compound 1 or a pharmaceutically acceptable salt or polymorph thereof, is taken with food.

## C[C@@H]1CN(Cc2ncccn2)C[C@H]1c1cn2c(C3CCOCC3)ncc2c(=O)[nH]1 [Compound 1, 6-[(3S,4S)-4-methyl-1-(pyrimidin-2-ylmethyl)pyrrolidin-3-yl]-3-tetrahydropyran-4-yl-7H-imidazo[1,5-a]pyrazin-8-one]
[1]; untreated Townes 139, control mice 57
  plasma sE-Sel: 92 ng/mL
[1]; untreated Townes increased 144%
  plasma sE-Sel levels elevated over control mice: 61%
[2]
  circulating levels of PMNs: reduced circulating levels of PMNs
[3]
  incubation time at which inhibitory effect was initiated: 15 min
[3]; 30 min incubation with 30 μM, p=0.03, FIG. 2
  reduction of neutrophil adhesion (average): 54%
[3]; added to blood samples prior to the perfusion step
  effect on neutrophil adhesion to activated HMEC-1: reduced adhesions significantly and in a dose dependent manner
[4]
  effect of food on adverse event profile (nausea, emesis, headache): food can dramatically reduce the adverse event profile
